Data reported in patent US9034871B2, “Compounds for Alzheimer's disease” (priority 2004, dated 2015).

What follows are compounds tested on Aβ42 (assay: Detection of secreted Aβ42 with Biosource ELISA kit in H4 cells expressing APP695). Settings: Ab42 lowering, cell based assay; read-out: Ab42 IC50.
Assay type: cell-based
Method: The present invention provides compositions and methods for lowering Aβ42 levels. To test whether compounds and compositions are capable of modulating Aβ levels, a sandwich enzyme-linked immunosorbent assay (ELISA) is employed to measure secreted Aβ (Aβ42 and/or Aβ40) levels. In this example, H4 cells expressing wide type APP695 are seeded at 200,000 cells/per well in 6 well plates, and incubated at 37 degree C. with 5% CO2 overnight. Cells are treated with 1.5 ml medium containing vehicle (DMSO) or a test compound at 1.25 μM, 2.5 μM, 5.0 μM and 10.0 μM (as well as other concentration if desirable) concentration for 24 hours or 48 hours. The supernatant from treated cells is collected into eppendorf tubes and frozen at −80 degree C. for future analysis.
The amyloid peptide standard is reconstituted and frozen samples are thawed. The samples and standards are diluted with appropriate diluents and the plate is washed 4 times with Working Wash Buffer and patted dry on a paper towel. 100 μL per well of peptide standards, controls, and dilutions of samples to be analyzed is added. The plate is incubated for 2 hours while shaking on an orbital plate shaker at RT. The plate is then washed 4 times with Working Wash Buffer and patted dry on a paper towel. Detection Antibody Solution is poured into a reservoir and 100 μL /well of Detection Antibody Solution is immediately added to the plate. The plate is incubated at RT for 2 hours while shaking and then washed four times with Working Wash Buffer and patted dry on a paper towel. Secondary Antibody Solution is then poured into a reservoir and 100 μL /well of Secondary Antibody Solution is immediately added to the plate. The plate is incubated at RT for 2 hours with shaking, washed 5 times with Working Wash Buffer, and patted dry on a paper towel.
100 μL of stabilized chromogen is added to each well and the liquid in the wells begins to turn blue. The plate is incubated for 30 minutes at room temperature and in the dark. 100 μL of stop solution is added to each well and the plate is tapped gently to mix resulting in a change of solution color from blue to yellow. The absorbance of each well is read at 450 nm having blanked the plate reader against a chromogen blank composed of 100 μL each of stabilized chromogen and stop solution. The plate is read within 2 hours of adding the stop solution. The absorbance of the standards is plotted against the standard concentration and the concentrations of unknown samples and controls are calculated.
These compounds were synthesized via the indicated synthetic route. Ab42 IC50 (uM) refers to IC50 value for Ab42 lowering in e.g., the assay described in Example 6.

| IC50 [µM] | Structure (SMILES) |
| --- | --- |
| 11.7 | CC(C)(C)C1CCc2c(cc(-c3ccc(Cl)c(Cl)c3)n2-c2ccc(C(=O)O)o2)C1 (stereo not shown) [5-[5-tButyl-2-(3,4-dichlorophenyl)-4,5,6,7-tetrahydroindol-1-yl] furan-2-carboxylic acid] |
| > 100 | CC1CCc2c(cc(-c3ccccc3)n2-c2ccc(C(=O)O)o2)C1 (stereo not shown) [5-(5-methyl-2-phenyl-4,5,6,7-tetrahydroindol-1-yl) furan-2-carboxylic acid] |
| 1.6 | O=C(O)c1ccc(-n2c(-c3ccc(Cl)c(Cl)c3)cc3c2CCC(C(F)(F)F)C3)o1 (stereo not shown) [5-[2-(3,4-dichlorophenyl)-5-trifluoromethyl 4,5,6,7-tetrahydroindol-1-yl]-furan-2-carboxylic acid] |
| 7.36 | O=C(O)c1ccc(-n2c(-c3ccc(Cl)c(Cl)c3)cc3c2CCCC3C(F)(F)F)o1 (stereo not shown) [5-[2-(3,4-dichlorophenyl)-4-trifluoromethyl-4,5,6,7-tetrahydroindol-1-yl]-furan-2-carboxylic acid] |
| > 100 | c1cncc(-c2cc3c(n2-c2cccc(-c4nn[nH]n4)c2)CCc2ccccc2-3)c1 [2-pyridin-3-yl-3-[3-(2H-tetrazol-5-yl)-phenyl]-4,5-dihydro-3H-benzo[e]indole] |
| > 100 | CC1CCc2c(cc(-c3ccccc3)n2-c2nc(C(=O)O)cs2)C1 (stereo not shown) [2-(5-methyl-2-phenyl-4,5,6,7-tetrahydroindol-1-yl) thiazole-4-carboxylic acid] |
| 100 | c1ccc(-c2cc3c(n2-c2cccc(-c4nn[nH]n4)c2)CCCC3)cc1 |
| 81 | O=C(O)c1cccc(-n2c(-c3ccncc3)cc3c4ccccc4ccc32)c1 [3-(2-pyridin-4-yl-benzo[e]indol-3-yl) benzoic acid] |
| 18 | O=C(O)c1cccc(-n2c(-c3ccc4c(c3)OCO4)cc3c2CCc2ccccc2-3)c1 [3-(2-benzo[1,3]dioxol-5-yl-4,5-dihydrobenzo[e]indol-3-yl) benzoic acid] |
| 8.9 | O=C(O)CCCc1ccc(-n2c(-c3ccc4c(c3)OCO4)cc3c4ccccc4ccc32)cc1 |
| > 100 | O=C(O)c1coc(Cn2c(-c3cc(-c4ccccc4)no3)cc3c4ccccc4ccc32)c1 [5-[2-(3-phenylisoxazol-5-yl)-benzo[e]indol-3-ylmethyl] furan-3-carboxylic acid] |
| 17 | O=C(O)CCCc1ccc(-n2c(-c3ccc(-c4ccc(Cl)cc4Cl)o3)cc3c4ccccc4ccc32)cc1 [4-(4-{2-[5-(2 4-dichlorophenyl)-furan-2-yl]-benzo[e]indol-3-yl}-phenyl) butyric acid] |
| 1 | Cc1onc(-c2ccccc2)c1-c1cc2c3ccccc3ccc2n1-c1ccc(CCCC(=O)O)cc1 [4-{4-[2-(5-methyl-3-phenylisoxazol-4-yl)-benzo[e]indol-3-yl]-phenyl} butyric acid] |

Same assay, conditions: IC50 value for Ab42 lowering in e.g. the assay described in Example 6; read-out: Ab42 IC50

| IC50 [µM] | Structure (SMILES) |
| --- | --- |
| 31 | O=C(O)CCCn1c(-c2ccccc2)cc2c3ccccc3ccc21 [Compound 68, 4-(2-phenyl-benzo[e]indol-3-yl) butyric acid] |
| 8 | CC(C)(C)C1CCc2c(cc(-c3ccccc3)n2-c2cccc(C(=O)O)c2)C1 (stereo not shown) [Compound 34, 3-(5-tert-butyl-2-phenyl-4,5,6,7-tetrahydroindol-1-yl)benzoic acid] |
| 24 | c1ccc(-c2cc3c(n2-c2cccc(-c4nn[nH]n4)c2)CCc2ccccc2-3)cc1 [Compound 63, 2-phenyl-3-[3-(2H-tetrazol-5-yl)-phenyl]-4,5-dihydro-3H-benzo[e]indole] |
| 55 | O=C(O)c1cccc(-n2c(-c3ccccc3)cc3ccccc32)c1 [Compound 17, 3-(2-phenylindol 1-yl) benzoic acid] |
| 27 | CC1CCc2c(cc(-c3ccccc3)n2-c2cccc(CCC(=O)O)c2)C1 (stereo not shown) [Compound 88, 3-[3-(5-methyl-2-phenyl-4,5,6,7-tetrahydroindol-1-yl)-phenyl] propionic acid] |

Same assay, conditions: cell based assay described in Example 6; read-out: Ab42 lowering IC50

| IC50 [µM] | Structure (SMILES) |
| --- | --- |
| 10 | c1ccc(-c2cc(-c3cc4c(n3-c3cccc(-c5nn[nH]n5)c3)CCc3ccccc3-4)on2)cc1 [Compound 138, 2-(3-phenylisoxazol-5-yl)-3-[3-(2H-tetrazol-5-yl)-phenyl]-4,5-dihydro-3H-benzo[e]indole] |
